Measured values published in DBAASP.
≈ marks a conversion by molar mass, not a printed value. Where “and” joins values, the source holds several entries; their conditions need not be identical. Identical values can stand only once.

What was measured:
Experiment in all cases: ≥ marks a high value that may be exact or a test limit, other limits are often not marked, values filed in µg/mL are converted to µM
[1] = tested on: Pseudomonas aeruginosa ATCC 27853
[2] = tested on: Klebsiella pneumoniae ATCC 13883
[3] = tested on: Escherichia coli DH5alpha
[4] = tested on: Salmonella enterica subsp. enterica serovar Typhimurium ATCC 14028
[5] = tested on: Staphylococcus aureus ATCC 2592
Bacillus subtilis = tested on: Bacillus subtilis
[6] = tested on: Candida albicans ATCC 2002
[7] = tested on: Escherichia coli ATCC 25922
[8] = tested on: Staphylococcus aureus NCTC 8325
[9] = tested on: Salmonella enterica subsp. enterica serovar Typhimurium C77-31
[10] = tested on: Staphylococcus aureus ATCC 29213
[11] = tested on: Staphylococcus aureus ATCC 25923
Escherichia coli UB1005 = tested on: Escherichia coli UB1005
[12] = tested on: Staphylococcus epidermidis ATCC 12228
[13] = tested on: Enterococcus faecalis ATCC 29212
[14] = tested on: Candida albicans ATCC 90028

**Q.** With CC[C@H](C)[C@H](NC(=O)[C@H](Cc1cnc[nH]1)NC(=O)[C@H](C)NC(=O)[C@H](CCSC)NC(=O)[C@H](CC(N)=O)NC(=O)[C@H](CCCCN)NC(=O)[C@H](CCCCN)NC(=O)[C@@H](NC(=O)[C@@H](NC(=O)[C@H](CCCCN)NC(=O)[C@H](C)NC(=O)[C@H](Cc1ccccc1)NC(=O)[C@H](CC(C)C)NC(=O)[C@H](CCCCN)NC(=O)[C@@H]1CCCN1C(=O)[C@H](CC(C)C)NC(=O)[C@H](Cc1ccccc1)NC(=O)[C@@H](N)CS)[C@@H](C)CC)[C@@H](C)O)C(=O)N[C@@H](CCCN=C(N)N)C(=O)O [CFLPKLFAKITKKNMAHIR] as the compound, how does the MIC [1] read?
**A.** 10 µM (≈ 22.6 µg/mL)

**Q.** What about the MIC [2] of the same compound?
**A.** 7 µM and 5 µM

**Q.** And the MIC [3]?
**A.** 10 µM (≈ 22.6 µg/mL)

**Q.** What about the MIC [4] of the same compound?
**A.** 15 µM (≈ 33.9 µg/mL)

**Q.** For CC[C@H](C)[C@H](NC(=O)[C@H](C)NC(=O)[C@H](CS)NC(=O)[C@@H](NC(=O)[C@@H](NC(=O)[C@@H](NC(=O)[C@@H]1CCCN1C(=O)[C@@H](NC(=O)[C@@H](NC(=O)[C@@H](NC(=O)[C@H](C)NC(=O)[C@H](Cc1ccccc1)NC(=O)[C@H](CC(C)C)NC(=O)[C@H](CCCN=C(N)N)NC(=O)[C@H](CCCN=C(N)N)NC(=O)[C@H](CC(C)C)NC(=O)CNC(=O)[C@@H]1CCCN1C(=O)[C@@H](NC(=O)[C@@H](N)Cc1ccccc1)[C@@H](C)CC)[C@@H](C)O)C(C)C)C(C)C)[C@@H](C)O)C(C)C)C(C)C)C(=O)N[C@@H](CC(N)=O)C(=O)N[C@@H](CCCCN)C(=O)N[C@@H](CC(C)C)C(=O)N1CCC[C@H]1C(=O)N1CCC[C@H]1C(=O)NCC(=O)O [FIPGLRRLFATVVPTVVCAINKLPPG], which MIC [5] is on record?
**A.** 4.5 µM (≈ 12.5 µg/mL)

**Q.** What about the MIC (Bacillus subtilis) of the same compound?
**A.** 18 µM (≈ 50 µg/mL)

**Q.** And the MIC [6]?
**A.** 2.27 µM (≈ 6.3 µg/mL)

**Q.** What about the MIC [7] of the same compound?
**A.** 4.5 µM (≈ 12.5 µg/mL)

**Q.** With CC[C@H](C)[C@H](NC(=O)[C@@H](NC(=O)[C@H](CO)NC(=O)[C@@H]1CCCN1C(=O)[C@@H](NC(=O)[C@H](CC(C)C)NC(=O)[C@H](CCCCN)NC(=O)[C@H](Cc1ccccc1)NC(=O)[C@H](CC(C)C)NC(=O)CNC(=O)CNC(=O)[C@H](CC(C)C)NC(=O)[C@@H](N)Cc1ccccc1)C(C)C)C(C)C)C(=O)N[C@H]1CSSC[C@@H](C(=O)O)NC(=O)[C@H](CCCCN)NC(=O)[C@H](CCCCN)NC(=O)[C@H]([C@@H](C)O)NC(=O)[C@H](C(C)C)NC(=O)[C@H](C)NC1=O [FLGGLFKLVPSVICAVTKKC] as the compound, how does the MIC [8] read?
**A.** 12.5 µM (≈ 26.5 µg/mL)

**Q.** What about the MIC [7] of the same compound?
**A.** 12.5 µM (≈ 26.5 µg/mL)

**Q.** What does the source list for CC[C@H](C)[C@H](NC(=O)CNC(=O)[C@H](CO)NC(=O)[C@H](CCCN=C(N)N)NC(=O)[C@@H](N)Cc1ccccc1)C(=O)N[C@@H](CC(C)C)C(=O)N[C@@H](CCCCN)C(=O)N[C@@H](CC(C)C)C(=O)N[C@@H](C)C(=O)N[C@@H](CO)C(=O)N[C@@H](CCCCN)C(=O)N[C@H](C(=O)NCC(=O)N[C@@H](CO)C(=O)N[C@H](C(=O)N[C@@H](CC(C)C)C(=O)N[C@H]1CSSC[C@@H](C(=O)O)NC(=O)[C@H](CC(N)=O)NC(=O)[C@H](CCCCN)NC(=O)[C@H](CC(C)C)NC(=O)[C@H](C(C)C)NC(=O)[C@H](C)NC1=O)C(C)C)[C@@H](C)CC [FRSGILKLASKIGSVLCAVLKNC]?
**A.** MIC [5]: 10.3 µM (≈ 25 µg/mL); MIC (Bacillus subtilis): 20.7 µM (≈ 50 µg/mL); MIC [6]: 10.3 µM (≈ 25 µg/mL); MIC [7]: 20.7 µM (≈ 50 µg/mL)

**Q.** For CC[C@H](C)[C@H](NC(=O)CNC(=O)[C@H](CCC(N)=O)NC(=O)[C@H](Cc1ccccc1)NC(=O)[C@H](Cc1ccccc1)NC(=O)[C@H](CCCCN)NC(=O)[C@H](CCCCN)NC(=O)[C@H](CC(C)C)NC(=O)[C@H](C)NC(=O)[C@H](CC(N)=O)NC(=O)[C@H](CC(C)C)NC(=O)CN)C(=O)N[C@@H](Cc1cnc[nH]1)C(=O)N[C@@H](CCC(=O)O)C(=O)N[C@@H](C)C(=O)N[C@H](C(=O)N[C@@H](CCCCN)C(=O)N[C@@H](CC(C)C)C(=O)N[C@H](C(=O)N[C@@H](CC(N)=O)C(=O)N[C@@H](CC(N)=O)C(=O)N[C@@H](Cc1cnc[nH]1)C(=O)N[C@H](C(=O)N[C@@H](CCC(N)=O)C(=O)O)C(C)C)[C@@H](C)CC)[C@@H](C)CC [GLNALKKFFQGIHEAIKLINNHVQ], which MIC [8] is on record?
**A.** ≥ 160 µM

**Q.** What about the MIC [7] of the same compound?
**A.** 20 µM (≈ 54.7 µg/mL)

**Q.** How did the MIC [8] turn out when CC[C@H](C)[C@H](NC(=O)CNC(=O)[C@H](CCC(N)=O)NC(=O)[C@H](Cc1ccccc1)NC(=O)[C@@H](NC(=O)[C@H](CCCCN)NC(=O)[C@H](CCCCN)NC(=O)[C@H](CC(C)C)NC(=O)[C@H](C)NC(=O)[C@H](CC(N)=O)NC(=O)[C@H](CC(C)C)NC(=O)CN)C(C)C)C(=O)N[C@@H](Cc1cnc[nH]1)C(=O)N[C@@H](CCC(=O)O)C(=O)N[C@@H](C)C(=O)N[C@H](C(=O)N[C@@H](CCCCN)C(=O)N[C@@H](CC(C)C)C(=O)N[C@H](C(=O)N[C@@H](CC(N)=O)C(=O)N[C@@H](CC(N)=O)C(=O)N[C@@H](Cc1cnc[nH]1)C(=O)N[C@H](C(=O)N[C@@H](CCCCN)C(=O)O)C(C)C)[C@@H](C)CC)[C@@H](C)CC [GLNALKKVFQGIHEAIKLINNHVK] was run?
**A.** ≥ 80 µM

**Q.** What about the MIC [7] of the same compound?
**A.** 20 µM (≈ 53.7 µg/mL)

**Q.** What does the source list for CC(C)C[C@H](NC(=O)[C@H](CCCN=C(N)N)NC(=O)[C@H](CCCN=C(N)N)NC(=O)[C@H](Cc1ccccc1)NC(=O)[C@H](CCCN=C(N)N)NC(=O)CN)C(=O)N[C@@H](CCCN=C(N)N)C(=O)N[C@@H](CCCCN)C(=O)N[C@@H](CCCCN)C(=O)N[C@H](C(=O)N[C@@H](CCCN=C(N)N)C(=O)N[C@@H](CCCCN)C(N)=O)[C@@H](C)O [GRFRRLRKKTRK]?
**A.** MIC [9]: ≥ 128 µM; MIC [10]: > 128 µM; MIC [11]: > 128 µM; MIC (Escherichia coli UB1005): ≥ 128 µM; MIC [7]: 128 µM (≈ 205 µg/mL); MIC [12]: > 128 µM

**Q.** How did the MIC [9] turn out when CC[C@H](C)[C@H](NC(=O)[C@H](CCCCN)NC(=O)[C@H](CCCCN)NC(=O)[C@H](CC(C)C)NC(=O)[C@H](CCCN=C(N)N)NC(=O)[C@H](CCCCN)NC(=O)[C@H](CCCN=C(N)N)NC(=O)[C@@H](NC(=O)[C@H](Cc1c[nH]c2ccccc12)NC(=O)[C@H](Cc1c[nH]c2ccccc12)NC(=O)[C@H](CCCN=C(N)N)NC(=O)[C@H](CC(C)C)NC(=O)[C@H](CCCN=C(N)N)NC(=O)[C@H](CCCN=C(N)N)NC(=O)[C@H](Cc1ccccc1)NC(=O)[C@@H](N)CCCN=C(N)N)[C@@H](C)O)C(N)=O [RFRRLRWWTRKRLKKI] was run?
**A.** 8 µM (≈ 18.4 µg/mL)

**Q.** What about the MIC [13] of the same compound?
**A.** 8 µM (≈ 18.4 µg/mL)

**Q.** And the MIC (Escherichia coli UB1005)?
**A.** 8 µM (≈ 18.4 µg/mL)

**Q.** What about the MIC [12] of the same compound?
**A.** 4 µM (≈ 9.2 µg/mL)

**Q.** What does the source list for CC(C)C[C@H](NC(=O)[C@H](CCCN=C(N)N)NC(=O)[C@H](Cc1c[nH]c2ccccc12)NC(=O)[C@H](CCCN=C(N)N)NC(=O)[C@@H](NC(=O)[C@H](Cc1c[nH]c2ccccc12)NC(=O)[C@H](Cc1c[nH]c2ccccc12)NC(=O)[C@H](CCCN=C(N)N)NC(=O)[C@H](CC(C)C)NC(=O)[C@H](CCCN=C(N)N)NC(=O)[C@@H](N)CCCN=C(N)N)[C@@H](C)O)C(=O)N[C@@H](CCCCN)C(N)=O [RRLRWWTRWRLK]?
**A.** MIC [9]: 8 µM (≈ 14.5 µg/mL); MIC [10]: 4 µM (≈ 7.25 µg/mL); MIC [11]: 8 µM (≈ 14.5 µg/mL); MIC (Escherichia coli UB1005): 4 µM (≈ 7.25 µg/mL); MIC [7]: 4 µM (≈ 7.25 µg/mL); MIC [12]: 8 µM (≈ 14.5 µg/mL)

**Q.** CC[C@H](C)[C@H](NC(=O)[C@@H](NC(=O)[C@@H]1CCCN1C(=O)[C@H](CC(C)C)NC(=O)[C@@H](NC(=O)[C@@H](N)CO)[C@@H](C)CC)[C@@H](C)O)C(=O)N[C@H](C(=O)N[C@@H](CO)C(=O)N[C@@H](Cc1ccccc1)C(=O)N[C@@H](CC(C)C)C(=O)N[C@@H](CO)C(=O)N[C@@H](CCCCN)C(=O)N[C@@H](Cc1ccccc1)C(=O)N[C@@H](CC(C)C)C(N)=O)C(C)C [SILPTIVSFLSKFL] was tested. Which MIC [8] did it give?
**A.** 24 µM (≈ 37.5 µg/mL)

**Q.** How did the MIC [8] turn out when CC[C@H](C)[C@H](NC(=O)[C@H](CCSC)NC(=O)[C@@H](N)CO)C(=O)N[C@@H](CO)C(=O)N[C@H](C(=O)N[C@@H](CC(C)C)C(=O)N[C@@H](CCCCN)C(=O)N[C@@H](CC(N)=O)C(=O)N[C@@H](CC(C)C)C(=O)NCC(=O)N[C@@H](CCCCN)C(=O)N[C@H](C(=O)NCC(=O)N[C@@H](CC(C)C)C(=O)NCC(=O)N[C@@H](Cc1ccccc1)C(=O)N[C@H](C(=O)N[C@@H](C)C(=O)N[C@H]1CSSC[C@@H](C(=O)O)NC(=O)[C@H](CCC(N)=O)NC(=O)[C@H](CCCCN)NC(=O)[C@H](CC(N)=O)NC(=O)[C@H](C(C)C)NC(=O)[C@H](CCCCN)NC1=O)C(C)C)C(C)C)C(C)C [SMISVLKNLGKVGLGFVACKVNKQC] was run?
**A.** ≥ 60 µM

**Q.** What about the MIC [7] of the same compound?
**A.** 3.5 µM (≈ 9.22 µg/mL)

**Q.** And the MIC [14]?
**A.** ≥ 110 µM

**Q.** CC(C)[C@H](N)C(=O)N[C@@H](CCCCN)C(=O)N[C@@H](CCCN=C(N)N)C(=O)N[C@@H](Cc1c[nH]c2ccccc12)C(=O)N[C@@H](CCCCN)C(=O)N[C@@H](CCCCN)C(=O)N[C@@H](Cc1ccccc1)C(=O)N[C@@H](Cc1c[nH]c2ccccc12)C(=O)N[C@@H](CCCN=C(N)N)C(=O)N[C@@H](CCCCN)C(=O)N[C@@H](Cc1c[nH]c2ccccc12)C(=O)N[C@@H](CCCCN)C(=O)N[C@@H](CCCCN)C(=O)N[C@@H](Cc1c[nH]c2ccccc12)C(=O)N[C@@H](Cc1c[nH]c2ccccc12)C(N)=O [VKRWKKFWRKWKKWW] was tested. Which MIC [5] did it give?
**A.** 2.06 µM (≈ 4.69 µg/mL)

**Q.** What about the MIC (Bacillus subtilis) of the same compound?
**A.** 2.06 µM (≈ 4.69 µg/mL)

**Q.** What about the MIC [6] of the same compound?
**A.** 1.03 µM (≈ 2.34 µg/mL)

**Q.** What about the MIC [7] of the same compound?
**A.** 8.24 µM (≈ 18.7 µg/mL)
